# In ChEMBL document CHEMBL2412954, “Synthesis and characterization of time-resolved fluorescence probes for evaluation of competitive binding to melanocortin receptors” (Bioorg Med Chem, 2013):
# pKi: −log10 of the molar value.
# What was measured:
# Melanocortin receptor 4 [1] = biological target: T1, Melanocortin receptor 4 (Homo sapiens, UniProt P32245); experiment: Displacement of Eu-DTPA-PEGO-NDP-alpha-MSH-NH2 from human MC4R expressed in […] cells after 1 hr by time-resolved fluorescence assay; format: cell-based, HEK293; conditions: for Ki: hek293
# Melanocortin receptor 4 [2] = biological target: T1, Melanocortin receptor 4; experiment: Displacement of Eu-DTPA-PEGOMSH(7) from human MC4R expressed in […] cells after 1 hr by time-resolved fluorescence assay; format: cell-based, HEK293; conditions: for Ki: hek293; for pKi: read-out: Ki
# T1 sequence (P32245 whole entry): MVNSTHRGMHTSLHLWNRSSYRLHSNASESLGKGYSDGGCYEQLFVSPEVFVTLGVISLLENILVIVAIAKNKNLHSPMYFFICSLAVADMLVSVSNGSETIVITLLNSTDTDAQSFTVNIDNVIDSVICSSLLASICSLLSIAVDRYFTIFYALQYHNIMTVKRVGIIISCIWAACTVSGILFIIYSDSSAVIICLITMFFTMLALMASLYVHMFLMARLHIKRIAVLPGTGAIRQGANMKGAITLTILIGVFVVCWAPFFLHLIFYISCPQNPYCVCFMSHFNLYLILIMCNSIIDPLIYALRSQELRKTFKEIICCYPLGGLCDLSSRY
Compound,Ki (Melanocortin receptor 4 [1]),Ki (Melanocortin receptor 4 [2]),pKi (Melanocortin receptor 4 [1]; read-out: Ki),pKi (Melanocortin receptor 4 [2])
CC(C)C(O)CCC(C)C(O)CCC(C)C(CCC(O)C(C)CCC(O)C(C)CCC(OCCCCc1cn(CCCCCC(=O)N[C@@H](CO)C(N)=O)nn1)C(C)C)OCCCCc1cn(CCCCCC(=O)N[C@@H](CO)C(N)=O)nn1 (some centres not stated),Not Active,Not Active,,
CCCC[C@H](NC(=O)[C@H](CO)NC(=O)CCCCCn1cc(CCCCOC(CCC(O)C(C)CCC(O)C(C)CCC(O)C(C)C)C(C)CCC(O)C(C)CCC(O)C(C)C)nn1)C(=O)N[C@@H](CCC(=O)O)C(=O)N[C@@H](Cc1cnc[nH]1)C(=O)N[C@H](Cc1ccccc1)C(=O)N[C@@H](CCCNC(=N)N)C(=O)N[C@@H](Cc1c[nH]c2ccccc12)C(N)=O (some centres not stated),,,7.48,8.62
CC(C)C(O)CCC(C)C(O)CCC(C)C(O)CCC(OCCCCc1cn(CCCCCC(=O)N[C@@H](CO)C(N)=O)nn1)C(C)CCC(O)C(C)CCC(O)C(C)C (some centres not stated),Not Active,Not Active,,
CCCC[C@H](NC(=O)[C@H](CO)NC(=O)CCCCCn1cc(CCCCOC(CCC(C)C(O)CCC(C)C(O)CCC(OCCCCc2cn(CCCCCC(=O)N[C@@H](CO)C(=O)N[C@@H](CCCC)C(=O)N[C@@H](CCC(=O)O)C(=O)N[C@@H](Cc3cnc[nH]3)C(=O)N[C@H](Cc3ccccc3)C(=O)N[C@@H](CCCNC(=N)N)C(=O)N[C@@H](Cc3c[nH]c4ccccc34)C(N)=O)nn2)C(C)CCC(O)C(C)CCC(O)C(C)C)C(C)C)nn1)C(=O)N[C@@H](CCC(=O)O)C(=O)N[C@@H](Cc1cnc[nH]1)C(=O)N[C@H](Cc1ccccc1)C(=O)N[C@@H](CCCNC(=N)N)C(=O)N[C@@H](Cc1c[nH]c2ccccc12)C(N)=O (some centres not stated),,,,8.77
